According to US7795290B2 (Genentech, Inc., priority 2004, dated 2010):

What follows are compounds tested against T1, AKT1 (Homo sapiens, UniProt P31749) (assay: HTS ATP-utilizing enzyme assay, off-chip mobility-shift (Caliper HTS 250)). Conditions: kinase named = inhibitory activity/selectivity; test compound 10 μM; active = greater than three-sigma from mean.
T1 construct: purchased Upstate 14-276
Format: biochemical
Procedure, shortened: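 AKT1 activity was measured by off-chip mobility shift (Caliper HTS 250) as the ratio of peptide substrate to phosphorylated product. Test compound was at 10 μM, with 2.5 h incubation at 20–22° C. EDTA wells served as 100% control and DMSO wells as 0%. Hits were called at three-sigma limits.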

T1 sequence (P31749 whole entry): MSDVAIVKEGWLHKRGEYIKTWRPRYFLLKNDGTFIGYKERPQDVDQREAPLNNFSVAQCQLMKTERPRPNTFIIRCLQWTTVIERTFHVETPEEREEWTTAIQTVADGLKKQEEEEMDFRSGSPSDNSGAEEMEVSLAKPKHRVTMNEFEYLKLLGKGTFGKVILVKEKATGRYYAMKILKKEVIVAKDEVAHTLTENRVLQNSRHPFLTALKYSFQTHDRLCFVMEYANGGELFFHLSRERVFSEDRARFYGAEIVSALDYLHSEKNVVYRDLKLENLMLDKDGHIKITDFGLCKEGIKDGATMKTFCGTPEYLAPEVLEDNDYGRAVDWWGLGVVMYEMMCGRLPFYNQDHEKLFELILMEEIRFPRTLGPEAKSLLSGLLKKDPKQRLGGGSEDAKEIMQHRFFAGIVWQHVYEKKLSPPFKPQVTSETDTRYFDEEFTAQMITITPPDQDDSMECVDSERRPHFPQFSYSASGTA

Activity, AKT1:
O=C(c1cccs1)N(CCC(=O)N(CCCCO)C1CCCCC1)c1nc(-c2cc3ccccc3o2)cs1 [N-(4-(benzofuran-2-yl)thiazol-2-yl)-N-(3-(cyclohexyl(4-hydroxybutyl)amino)-3-oxopropyl)thiophene-2-carboxamide]
CCN(CC)CCCN(C(=O)c1cccs1)c1nc(-c2cc3ccccc3o2)cs1 [N-(4-(benzofuran-2-yl)thiazol-2-yl)-N-(3-(diethylamino)propyl)thiophene-2-carboxamide]
O=C(CCN(C(=O)c1cccs1)c1nc(-c2cc3ccccc3o2)cs1)NCc1ccoc1 [N-(4-(benzofuran-2-yl)thiazol-2-yl)-N-(3-(furan-3-ylmethylamino)-3-oxopropyl)thiophene-2-carboxamide]
CC(C)CN(C(=O)CCN(C(=O)c1cccs1)c1nc(-c2cc3ccccc3o2)cs1)C1CCS(=O)(=O)C1 (centres unmarked) [N-(4-(benzofuran-2-yl)thiazol-2-yl)-N-(3-(isobutyl(1,1-dioxo-tetrahydrothiophen-3-yl)amino)-3-oxopropyl)thiophene-2-carboxamide]
O=C(CCN(C(=O)c1cccs1)c1nc(-c2cc3ccccc3o2)cs1)N1Cc2ccccc2C1 [N-(4-(benzofuran-2-yl)thiazol-2-yl)-N-(3-(isoindolin-2-yl)-3-oxopropyl)thiophene-2-carboxamide]
CNCCN(C)C(=O)CCN(C(=O)c1cccs1)c1nc(-c2cc3ccccc3o2)cs1 [N-(4-(benzofuran-2-yl)thiazol-2-yl)-N-(3-(methyl(2-(methylamino)ethyl)amino)-3-oxopropyl)thiophene-2-carboxamide]
CN(C(=O)CCN(C(=O)c1cccs1)c1nc(-c2cc3ccccc3o2)cs1)c1ccncc1 [N-(4-(benzofuran-2-yl)thiazol-2-yl)-N-(3-(methyl(pyridin-4-yl)amino)-3-oxopropyl)thiophene-2-carboxamide]
O=C(c1cccs1)N(CCCN1CCCCC1)c1nc(-c2cc3ccccc3o2)cs1 [N-(4-(benzofuran-2-yl)thiazol-2-yl)-N-(3-(piperidin-1-yl)propyl)thiophene-2-carboxamide]
O=C(CCN(C(=O)c1cccs1)c1nc(-c2cc3ccccc3o2)cs1)N1CCOCC1 [N-(4-(benzofuran-2-yl)thiazol-2-yl)-N-(3-morpholino-3-oxopropyl)thiophene-2-carboxamide]
O=C(C1CCC1)N(CCCN1CCOCC1)c1nc(-c2cc3ccccc3o2)cs1 [N-(4-(benzofuran-2-yl)thiazol-2-yl)-N-(3-morpholinopropyl)cyclobutanecarboxamide]
O=C(c1ccco1)N(CCCN1CCOCC1)c1nc(-c2cc3ccccc3o2)cs1 [N-(4-(benzofuran-2-yl)thiazol-2-yl)-N-(3-morpholinopropyl)furan-2-carboxamide]
O=C(c1cccnc1)N(CCCN1CCOCC1)c1nc(-c2cc3ccccc3o2)cs1 [N-(4-(benzofuran-2-yl)thiazol-2-yl)-N-(3-morpholinopropyl)nicotinamide]
O=C(c1ccccn1)N(CCCN1CCOCC1)c1nc(-c2cc3ccccc3o2)cs1 [N-(4-(benzofuran-2-yl)thiazol-2-yl)-N-(3-morpholinopropyl)picolinamide]
O=C(c1cccs1)N(CCCN1CCOCC1)c1nc(-c2cc3ccccc3o2)cs1 [N-(4-(benzofuran-2-yl)thiazol-2-yl)-N-(3-morpholinopropyl)thiophene-2-carboxamide]
O=C(CCN(C(=O)c1cccs1)c1nc(-c2cc3ccccc3o2)cs1)NCCOc1ccccc1 [N-(4-(benzofuran-2-yl)thiazol-2-yl)-N-(3-oxo-3-(2-phenoxyethylamino)propyl)thiophene-2-carboxamide]
O=C1CN(C(=O)CCN(C(=O)c2cccs2)c2nc(-c3cc4ccccc4o3)cs2)CCN1 [N-(4-(benzofuran-2-yl)thiazol-2-yl)-N-(3-oxo-3-(3-oxopiperazin-1-yl)propyl)thiophene-2-carboxamide]
O=C(CCN(C(=O)c1cccs1)c1nc(-c2cc3ccccc3o2)cs1)N1CCNCC1 [N-(4-(benzofuran-2-yl)thiazol-2-yl)-N-(3-oxo-3-(piperazin-1-yl)propyl)thiophene-2-carboxamide]
O=C(CCN(C(=O)c1cccs1)c1nc(-c2cc3ccccc3o2)cs1)N1CCSC1 [N-(4-(benzofuran-2-yl)thiazol-2-yl)-N-(3-oxo-3-(thiazolidin-3-yl)propyl)thiophene-2-carboxamide]
O=C(c1cccs1)N(CCCc1ccccc1)c1nc(-c2cc3ccccc3o2)cs1 [N-(4-(benzofuran-2-yl)thiazol-2-yl)-N-(3-phenylpropyl)thiophene-2-carboxamide]
CC(CO)NC(=O)CCCN(C(=O)c1cccs1)c1nc(-c2cc3ccccc3o2)cs1 (centres unmarked) [N-(4-(benzofuran-2-yl)thiazol-2-yl)-N-(4-(1-hydroxypropan-2-ylamino)-4-oxobutyl)thiophene-2-carboxamide]
C[S+]([O-])CCNC(=O)CCCN(C(=O)c1cccs1)c1nc(-c2cc3ccccc3o2)cs1 (centres unmarked) [N-(4-(benzofuran-2-yl)thiazol-2-yl)-N-(4-(2-(methylsulfinyl)ethylamino)-4-oxobutyl)thiophene-2-carboxamide]
CN(C)CCN1CCN(C(=O)CCCN(C(=O)c2cccs2)c2nc(-c3cc4ccccc4o3)cs2)CC1 [N-(4-(benzofuran-2-yl)thiazol-2-yl)-N-(4-(4-(2-(dimethylamino)ethyl)piperazin-1-yl)-4-oxobutyl)thiophene-2-carboxamide]
CN(C)S(=O)(=O)N1CCN(C(=O)CCCN(C(=O)c2cccs2)c2nc(-c3cc4ccccc4o3)cs2)CC1 [N-(4-(benzofuran-2-yl)thiazol-2-yl)-N-(4-(4-(N,N-dimethylsulfamoyl)piperazin-1-yl)-4-oxobutyl)thiophene-2-carboxamide]
CCN(CC)C1CCN(C(=O)CCCN(C(=O)c2cccs2)c2nc(-c3cc4ccccc4o3)cs2)CC1 [N-(4-(benzofuran-2-yl)thiazol-2-yl)-N-(4-(4-(diethylamino)piperidin-1-yl)-4-oxobutyl)thiophene-2-carboxamide]
CS(=O)(=O)c1ccc2c(c1)CCN2C(=O)CCCN(C(=O)c1cccs1)c1nc(-c2cc3ccccc3o2)cs1 [N-(4-(benzofuran-2-yl)thiazol-2-yl)-N-(4-(5-(methylsulfonyl)indolin-1-yl)-4-oxobutyl)thiophene-2-carboxamide]
CN(CC(O)CO)C(=O)CCCN(C(=O)c1cccs1)c1nc(-c2cc3ccccc3o2)cs1 (centres unmarked) [N-(4-(benzofuran-2-yl)thiazol-2-yl)-N-(4-((2,3-dihydroxypropyl)(methyl)amino)-4-oxobutyl)thiophene-2-carboxamide]
